Assay results from patent US5480885A, “Ergoline derivatives of 1-propinylamine, a process for the manufacture thereof and the use thereof for medicaments” (priority 1991, dated 1996).
Entries after “also recorded” stand apart in the source; their conditions may differ. Where two headings read alike, the source gives them in different places.

Key:
[1] = tested on: pentobarbital-anesthetized normotensive rats; assay: blood pressure and heart rate in pentobarbital-anesthetized normotensive rats; assay type: in vivo, rat; details: 450 μg/kg i.v.; for effect on carotid artery pressure / effect on heart rate: in words
[2] = biological target: T1, 5-HT1A serotoninergic receptor (Homo sapiens, UniProt P08908); assay: functional test, 5-HT1A serotoninergic receptor; details: in words
T1 sequence (P08908 1-422): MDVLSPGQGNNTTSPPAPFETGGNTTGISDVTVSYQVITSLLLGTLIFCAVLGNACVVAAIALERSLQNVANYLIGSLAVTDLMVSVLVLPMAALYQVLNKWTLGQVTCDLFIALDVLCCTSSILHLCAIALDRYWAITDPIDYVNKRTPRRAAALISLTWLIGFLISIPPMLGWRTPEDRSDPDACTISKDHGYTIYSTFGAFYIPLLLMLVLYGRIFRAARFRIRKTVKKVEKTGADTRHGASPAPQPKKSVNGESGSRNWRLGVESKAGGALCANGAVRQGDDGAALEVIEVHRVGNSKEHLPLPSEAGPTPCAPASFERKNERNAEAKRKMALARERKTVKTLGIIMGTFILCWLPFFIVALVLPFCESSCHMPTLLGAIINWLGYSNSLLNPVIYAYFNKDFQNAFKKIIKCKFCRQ

D2 receptor = D2 receptor (Homo sapiens, UniProt P14416); assay: binding, [^3 H]Raclopride; details: for Ki: D2, [^3 H]Raclopride; for affinity for D2 receptors: in words
Source text: (§1) Binding affinities of the compounds of Examples 1

5-HT2 receptors = biological target: T2, 5-HT2 receptors (Mus musculus, UniProt P35363); assay: inhibition of the head twitch response after 5-HTP/carbidopa; assay type: in vivo, mice; details: ip; for ED50: mice, read-out: ID50, inhibition of head twitch response
T2 construct: The head twitch model in mice; from tissue; host or cells: living mice (central nervous system)
Method: The substance was injected 15 minutes prior to DL-5-HTP. The head twitch was recorded from 30 to 35 minutes after the DL-5-HTP injection (modified method according to Handley and Singh, Br. J. Pharmacol. 86, 297 (1985)).
The compound was injected 15 minutes prior to L-5-HTP (modified method according to Handley and Singh, Br. J. Pharmacol. 86, 297 (1985)).
The head twitch model in mice represents an experimental model for determining the hallucinogenic action of a compound (the method was described by Handley and Singh, Br.J.Pharmacol., 86, 297-303, 1985). It is believed that the response is conveyed via the 5-HT2 receptors.

pithed rats = assay: vasoconstriction / diastolic pressure in pithed rats (Gillespie); assay type: in vivo, rat; details: 450 μg/kg i.v.; for peripheral vasoconstriction: in words
sigma receptor [3] = assay: binding at [^3 H] DTG binding site; details: in words
pupil = assay: dilatation of the pupil in mice (Pulewka); assay type: in vivo; details: in words
isolated rat uterus = assay: uterotonic activity (isolated rat uterus); details: in words
5-HT2 receptor = 5-HT2 receptor (Homo sapiens, UniProt P28223); assay: biochemical; assay type: binding; details: for Ki: 5-HT2, [^3 H]Ketanserin, read-out: Ki; for affinity for 5-HT2 receptors: in words
Source text: as §1

sigma receptor [4] = assay: functional test, sigma receptor; details: in words
[5] = tested on: isolated rabbit thoracic aorta; assay: constriction of the isolated rabbit thoracic aorta
[6] = biological target: T1, 5-HT1A serotoninergic receptor; assay: binding at [^3 H] 8-OH-DPAT binding site; details: for affinity to 5-HT1A receptor: [^3 H] 8-OH-DPAT, in words
Source text: as §1

5-HT1A receptors = assay: spontaneous tail-flicks in rats; assay type: in vivo, rat; details: in words
catalepsy in rats = assay type: in vivo, rat; details: rat, in vivo, sc; rats
Method: (§2) The s.c. application of the compounds of Example 5 (0.5 to 16 mg/kg) and of Example 8 (0.125 to 4 mg/kg), respectively, caused catalepsy in rats (the method was described by Morelli and Chiara, Europ. J. Pharmacol. 117, 179-185, 1985).

α1 receptor = assay: binding, [^3 H]Prazosin
Source text: (§3) Binding affinities of the compounds of Examples 5

[7] = spontaneous motor activity in mice; assay type: in vivo; details: mouse, in vivo, ip; mice; read-out: ID50, inhibition of spontaneous motor activity
mice = assay: spontaneous motor activity in mice; assay type: in vivo; details: two models (motor activity and pentobarbital anesthesia); vs haloperidol; in words
[8] = blood pressure and heart rate in pentobarbital-anesthetized normotensive rats; assay type: in vivo, rat; details: rat, in vivo, iv; normotensive rats, pentobarbital-induced anesthesia; read-out: ED50, decrease of the mean arterial blood pressure
[9] = prolongation of pentobarbital-induced anesthesia in mice; details: mouse, in vivo, ip
[10] = tested on: isolated rat uterus (serotonin); assay: inhibition of serotonin-induced contractions of the isolated rat uterus; details: serotonin-induced contractions (serotonin 2.47×10^-8 M where printed)
α1 receptors = assay: noradrenaline-induced lethality in rats; assay type: in vivo, rat; details: s.c.
[11] = overall antipsychotic action and side-effect profile (summary statements); assay type: in vivo; details: in words
[12] = biological target: T3, isolated rabbit thoracic aorta (serotonin) (Oryctolagus cuniculus, UniProt G1SYA7)
T3 construct: isolated rabbit thoracic aorta; from tissue; host or cells: isolated rabbit thoracic aorta

rats = assay: catalepsy in rats; assay type: in vivo, rat; details: in words
Method: as §2

D1 receptor = D1 receptor (Homo sapiens, UniProt P21728); assay: binding, [^3 H]SCH23390
Source text: as §3

[13] = tested on: isolated rabbit thoracic aorta (noradrenaline); assay: inhibition of the constrictive activity of noradrenaline on the isolated rabbit thoracic aorta
D2 receptors [14] = biological target: T4, D2 receptors (Rattus norvegicus, UniProt P61169); assay: apomorphine-induced locomotion; assay type: in vivo; details: sc, -45 min., apomorphine 0.4 mg/kg s.c., rats, read-out: ID50, apomorphine-induced locomotion
T4 construct: from tissue; host or cells: living rats (central nervous system)

D2 receptors [15] = biological target: T5, D2 receptors (Mus musculus, UniProt P61168); assay: apomorphine-induced climbing in mice; assay type: in vivo; details: ip, -30 min., apomorphine 1.5 mg/kg s.c., read-out: ID50, climbing behavior
T5 construct: from tissue; host or cells: living mice (central nervous system)
Method: The application of apomorphine in a dose of 1.5 mg/kg s.c. caused a characteristic climbing behavior in mice.

D2 receptor, sequence (P14416 whole entry): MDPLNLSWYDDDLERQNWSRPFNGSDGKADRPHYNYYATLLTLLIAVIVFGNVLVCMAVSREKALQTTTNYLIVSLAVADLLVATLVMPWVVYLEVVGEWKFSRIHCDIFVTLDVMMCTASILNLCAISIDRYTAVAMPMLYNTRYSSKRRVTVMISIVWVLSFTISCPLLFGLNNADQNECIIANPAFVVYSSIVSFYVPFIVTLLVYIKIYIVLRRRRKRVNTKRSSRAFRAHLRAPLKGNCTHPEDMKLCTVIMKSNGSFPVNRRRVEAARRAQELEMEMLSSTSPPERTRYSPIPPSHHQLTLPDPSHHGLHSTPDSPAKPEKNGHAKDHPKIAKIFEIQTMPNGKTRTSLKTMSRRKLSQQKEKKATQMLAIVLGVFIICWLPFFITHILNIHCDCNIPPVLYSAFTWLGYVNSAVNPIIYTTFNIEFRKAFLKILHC
T2 sequence (P35363 whole entry): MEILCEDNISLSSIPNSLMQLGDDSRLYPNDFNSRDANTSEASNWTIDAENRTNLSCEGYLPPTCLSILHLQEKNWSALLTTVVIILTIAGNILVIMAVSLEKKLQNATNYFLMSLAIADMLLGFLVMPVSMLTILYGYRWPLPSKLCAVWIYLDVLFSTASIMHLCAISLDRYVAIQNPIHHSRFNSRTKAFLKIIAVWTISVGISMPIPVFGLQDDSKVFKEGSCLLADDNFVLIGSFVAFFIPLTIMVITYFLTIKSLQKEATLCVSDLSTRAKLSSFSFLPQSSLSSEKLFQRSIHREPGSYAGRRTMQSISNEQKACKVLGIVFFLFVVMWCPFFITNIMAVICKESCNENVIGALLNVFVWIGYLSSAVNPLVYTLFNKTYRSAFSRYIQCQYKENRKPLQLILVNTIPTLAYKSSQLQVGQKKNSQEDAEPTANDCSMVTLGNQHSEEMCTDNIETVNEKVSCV
5-HT2 receptor, sequence (P28223 whole entry): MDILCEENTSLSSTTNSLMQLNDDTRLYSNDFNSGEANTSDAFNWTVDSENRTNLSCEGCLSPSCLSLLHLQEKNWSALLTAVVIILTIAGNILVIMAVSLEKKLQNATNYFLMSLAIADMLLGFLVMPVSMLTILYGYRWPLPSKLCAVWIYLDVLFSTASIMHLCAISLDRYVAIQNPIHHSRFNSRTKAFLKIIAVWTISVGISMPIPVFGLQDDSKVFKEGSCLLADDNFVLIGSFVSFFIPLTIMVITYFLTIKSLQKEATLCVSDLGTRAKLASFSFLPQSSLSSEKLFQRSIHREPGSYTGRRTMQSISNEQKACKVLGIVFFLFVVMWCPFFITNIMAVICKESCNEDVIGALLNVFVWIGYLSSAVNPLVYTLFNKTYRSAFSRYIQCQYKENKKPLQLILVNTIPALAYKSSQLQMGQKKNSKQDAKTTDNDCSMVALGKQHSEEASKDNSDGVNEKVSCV
D1 receptor, sequence (P21728 whole entry): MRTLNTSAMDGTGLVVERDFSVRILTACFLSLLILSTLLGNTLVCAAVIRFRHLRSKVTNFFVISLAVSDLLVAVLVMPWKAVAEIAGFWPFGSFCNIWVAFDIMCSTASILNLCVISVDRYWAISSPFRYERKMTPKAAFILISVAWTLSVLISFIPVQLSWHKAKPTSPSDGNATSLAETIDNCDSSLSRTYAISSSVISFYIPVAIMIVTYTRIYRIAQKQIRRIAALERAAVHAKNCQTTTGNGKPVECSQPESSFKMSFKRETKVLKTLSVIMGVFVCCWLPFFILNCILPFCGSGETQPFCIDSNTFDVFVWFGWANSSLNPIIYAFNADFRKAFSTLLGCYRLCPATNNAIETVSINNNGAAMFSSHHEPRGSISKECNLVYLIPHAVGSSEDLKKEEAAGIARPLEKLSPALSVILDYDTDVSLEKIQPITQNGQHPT
T3 sequence (G1SYA7 entry or part of it): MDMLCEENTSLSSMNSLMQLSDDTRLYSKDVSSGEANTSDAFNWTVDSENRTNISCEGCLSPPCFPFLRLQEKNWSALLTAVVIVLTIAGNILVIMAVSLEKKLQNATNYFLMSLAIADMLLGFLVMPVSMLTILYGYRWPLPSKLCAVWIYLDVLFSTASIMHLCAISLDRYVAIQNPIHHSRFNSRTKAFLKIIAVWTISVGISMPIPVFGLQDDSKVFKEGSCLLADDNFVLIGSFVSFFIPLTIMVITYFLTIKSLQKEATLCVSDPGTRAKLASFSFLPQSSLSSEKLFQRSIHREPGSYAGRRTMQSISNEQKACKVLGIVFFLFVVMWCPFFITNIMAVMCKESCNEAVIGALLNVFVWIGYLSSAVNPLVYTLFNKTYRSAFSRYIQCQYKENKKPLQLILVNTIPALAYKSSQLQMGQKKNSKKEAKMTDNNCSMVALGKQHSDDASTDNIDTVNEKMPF
T4 sequence (P61169 whole entry): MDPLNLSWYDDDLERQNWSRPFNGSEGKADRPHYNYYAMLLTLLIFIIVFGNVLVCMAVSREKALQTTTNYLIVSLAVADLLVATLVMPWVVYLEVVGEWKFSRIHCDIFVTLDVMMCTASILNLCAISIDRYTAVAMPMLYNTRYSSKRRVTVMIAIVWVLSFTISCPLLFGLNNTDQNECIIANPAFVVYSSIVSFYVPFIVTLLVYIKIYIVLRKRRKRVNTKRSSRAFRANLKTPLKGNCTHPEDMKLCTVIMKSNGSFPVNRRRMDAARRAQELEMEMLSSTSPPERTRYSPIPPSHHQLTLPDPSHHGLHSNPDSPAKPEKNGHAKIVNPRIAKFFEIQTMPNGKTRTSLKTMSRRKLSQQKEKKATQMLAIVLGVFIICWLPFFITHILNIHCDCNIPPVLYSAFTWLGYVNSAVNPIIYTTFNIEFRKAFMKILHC
T5 sequence (P61168 whole entry): as the sequence (P61169 whole entry) above, with A29P counted along it

With `C#CCNC(=O)[C@@H]1C=C2c3cccc4[nH]cc(c34)C[C@H]2N(C)C1` [Example 1, 9,10-Didehydro-N-(2'-propinyl)-6-methylergoline-8β-carboxamide] the exitus [1] was “followed by exitus”, the “time to onset of reduction in pressure and heart rate” value [1] was “Approximately 2 minutes” and the “effect on carotid artery pressure” value [1] was “a strong reduction in the carotid artery pressure and heart rate”. For the same compound, the “effect on heart rate” value [1] was “a strong reduction in the carotid artery pressure and heart rate”, the “functional activity at 5-HT1A” value [2] was “indicated an agonistic activity” and the Ki (D2 receptor) was 151 nM. For the same compound, the “affinity for D2 receptors” value (D2 receptor) was “lower affinity”, the inhibition at 4 mg/kg (5-HT2 receptors; 4 mg/kg i.p., D,L-5-hydroxytryptophan/carbidopa, 15 minutes prior) was 62% and the ED50 (5-HT2 receptors; 5-hydroxytryptophan/carbidopa) was 0.74 mg/kg. The peripheral vasoconstriction (pithed rats) was “transient, yet very strong peripheral vasoconstriction”, the “affinity to sigma receptor” value (sigma receptor [3]) was “possessed affinity” and the “dilatation of the pupil” value (pupil; 5 mg/kg i.p.) was “very strong dilatation of the pupil”. The “time course of effect” value (pupil; 5 mg/kg i.p.) was “After 60 minutes the effect was quickly reduced”, the “behavioural effects in mice” value (pupil) was “The mice became agitated, piloerection, tremor and excitation took place” and the uterotonic activity (isolated rat uterus) was “no uterotonic activity”. The Ki (5-HT2 receptor) was 64 nM, the “affinity for 5-HT2 receptors” value (5-HT2 receptor) was “high affinity” and the “functional activity at sigma receptor” value (sigma receptor [4]) was “indicated an antagonistic activity”. The “receptors responsible for vasoconstriction” value ([5]; 1 μM) was “the result of the activation of α1 -adrenergic receptors”, the “constriction of the isolated rabbit thoracic aorta” value ([5]; in words) was “caused a constriction of the isolated rabbit thoracic aorta” and the “intrinsic activity, aorta constriction” value ([5]; in words, vs serotonin) was “comparable to that of serotonin”. The Ki ([6]; 5-HT1A, [^3 H]8-OH-DPAT) was 1 nM, the “affinity to 5-HT1A receptor” value [6] was “high affinity; also recorded: possessed affinity” and the spontaneous tail-flick (5-HT1A receptors; 0.08 to 0.63 mg/kg s.c. (Example 1), 5.0 mg/kg s.c. (Example 2)) was “provoked a dose- and time-dependent spontaneous tail-flick in rats”. The “tail-flick effect compared with 8-OH-DPAT” value (5-HT1A receptors; s.c.) was “very similar to that caused by the selective 5-HT1A agonist 8-OH-DPAT”.
For `O=C(CCCN1CCC(O)(c2ccc(Cl)cc2)CC1)c1ccc(F)cc1` [haloperidole, reference compound], the ED50 (catalepsy in rats) was 0.019 mg/kg.
With `C#CCN(C)C(=O)[C@@H]1C=C2c3cccc4[nH]c(Br)c(c34)C[C@H]2N(C)C1` [Example 5, 2-Bromo-9,10-didehydro-N-methyl-N-(2'-propinyl)-6-methylergoline-8β-carboxamide] the “affinity for α1 receptors” value (α1 receptor; in words) was “lower”, the Ki (α1 receptor; α1, [^3 H]Prazosin) was 29 nM and the ED50 [7] was 12.5 mg/kg. The “depressant action on the level of CNS” value (mice) was “several times lower depressant action on the level of CNS if compared with haloperidol”, the ED50 [8] was 0.42 mg/kg and the “effect on carotid artery pressure” value [1] was “small, yet statistically significant decrease in carotid artery pressure and heart rate”. The “effect on heart rate” value [1] was “small, yet statistically significant decrease in carotid artery pressure and heart rate”, the “maximum reduction in carotid artery pressure” value ([1]; vs initial level) was 10% and the “reduction in heart rate” value ([1]; vs initial level) was 10%. The “functional activity at 5-HT1A” value [2] was “did not indicate any activity”, the Ki (D2 receptor) was 2.3 nM and the “affinity for D2 receptors” value (D2 receptor) was “high affinity”. For the same compound, the ED50 [9] was 9.2 mg/kg, the ED50 (5-HT2 receptors; L-5-HTP/carbidopa, 15 minutes prior) was 3.8 mg/kg and the IC50 [10] was 12.5 nM. For the same compound, the peripheral vasoconstriction (pithed rats) was “slowly developing peripheric vasoconstriction”, the “peripheric vasoconstriction, increase” value (pithed rats; vs control) was 20% and the “affinity to sigma receptor” value (sigma receptor [3]) was “possessed affinity”. The uterotonic activity (isolated rat uterus) was “no uterotonic activity”, the “ID50, noradrenaline-induced lethality” value (α1 receptors) was 5.11 mg/kg and the antipsychotic action [11] was “strongest antipsychotic action”. For the same compound, the “mode of inhibition of serotonin constriction” value ([12]; in words) was “competitively inhibited”, the Kb ([12]; vs serotonin, read-out: pA2 (converted)) was 11.7 nM and the ED50 (catalepsy in rats) was 1.4 mg/kg. For the same compound, the “cataleptic action compared with haloperidole” value (rats) was “lesser than the action caused by the typical antipsychotic haloperidole”, the Ki (5-HT2 receptor) was 18 nM and the “affinity for 5-HT2 receptors” value (5-HT2 receptor) was “high affinity”. For the same compound, the Ki (D1 receptor; D1, [^3 H]SCH23390) was 97 nM, the “affinity for D1 receptors” value (D1 receptor; in words) was “lower” and the “mode of inhibition of noradrenaline constriction” value ([13]; in words) was “competitively inhibited”. The pA2 ([13]; vs noradrenaline) was 6.45, the “functional activity at sigma receptor” value (sigma receptor [4]) was “indicated an antagonistic activity” and the ED50 (D2 receptors [14]) was 0.66 mg/kg. For the same compound, the “affinity to 5-HT1A receptor” value [6] was “possessed affinity” and the ED50 (D2 receptors [15]) was 6.89 mg/kg.
